# In patent US9018216B2, “Solid forms of (R)-2-(5-(2-(3-ethylureido)-6-fluoro-7-(tetrahydrofuran-2-yl)-1H-benzo[d]imidazol-5-yl)pyrimidin-2-yl)propan-2-yl dihydrogen phosphate and salts thereof” (priority 2012, dated 2015):
# Where two headings read alike, the source gives them in different places.
# Columns and labels:
# [1] = system: Streptococcus pneumoniae ATCC 10015; test: Gyrase MIC determination using microdilution broth method (Protocol 1); assay type: cell-based; conditions: ATCC10015, Streptococcus pneumoniae ATCC 10015, with 3% Laked Horse Blood
# [2] = system: Staphylococcus aureus ATCC 29213; test: microbe, parasite or virus in culture; assay type: cell-based; conditions: Staphylococcus aureus, Protocol 1
# [3] = system: Enterococcus faecalis ATCC 29212; test: Gyrase MIC determination using microdilution broth method (Protocol 1); assay type: cell-based; conditions: Enterococcus faecalis, ATCC29212, Enterococcus faecalis ATCC 29212, with 3% Laked Horse Blood, read-out: MIC
# [4] = Stability of the solid forms (net increase in total impurities at 40 C/30% RH); assay type: physicochemical; conditions: 17 days
# [5] = system: Enterococcus faecium ATCC 49624; test: Gyrase MIC determination using microdilution broth method (Protocol 1); assay type: cell-based; conditions: ATCC49624, Enterococcus faecium ATCC 49624 with 3% Laked Horse Blood, read-out: MIC
# Escherichia coli AG100 = test: Gyrase MIC determination against Gram negatives using microdilution broth method (Protocol 2); assay type: cell-based; conditions: read-out: MIC
# Procedure: Compounds of this invention were tested for antimicrobial activity by susceptibility testing in liquid media. […] The specific protocols used were as follows:
# Protocol 2: Gyrase MIC Determination of Compounds Against Gram Negatives Using Microdilution Broth Method
# Strains (MHII Media for all; Broth and Agar): • 1. Escherichia coli AG100 WT • 2. Escherichia coli AG100 tolC • 3. […] Haemophilus influenzae Rd0894 (AcrA−)
# Inoculum Prep: • 1. Using the BBL Prompt kit, picked 5 big or 10 small, well separated colonies from cultures grown on agar medium and inoculated 1 mL sterile saline that came with the kit. • 2. Vortexed the wells for ˜30 s to give a suspension of ˜10^8 cells/mL. Actual density could be confirmed by plating out dilutions of this suspension. • 3. Diluted the suspension 1/100 by transferring 0.15 mL of cells into 15 mL (˜10^6 cells/mL) sterile broth (see below) for each plate of compounds tested, swirled to mix. […] Used 50 μl cells (˜5×10^4 cells) to inoculate each microtiter well containing 50 μl of the drug diluted in broth (see below).
# Drug Dilutions, Inoculation, MIC Determination: • 1. […] Diluted drug/compound stocks to 200× desired final concentration in 50 μL DMSO. If starting concentration of MICs was 8 μg/mL final concentration, then required 6.25 μL of stock+43.75 μL DMSO. Each 200× stock was placed in a separate row of column 1 of a new 96 well microtiter plate. • 3. Added 25 μL of DMSO to columns 2-12 of all rows of the microtiter plate containing 200× compound stocks and serially diluted 25 μL from column 1 through column 11, changed tips after each column. i.e. 25 μL compound+25 μL DMSO=2× dilution. Left “no compound” DMSO well at the end of the series for control. • 4. For each strain tested, prepared two microtiter plates with 50 μL of MHII broth using a Matrix pipettor. • 5. Transferred 0.5 μL of each dilution (w/Matrix auto-pipettor) to 50 μL of medium/microtiter well prior to the addition of 50 μl of cells. The usual starting concentration of compound was 8 μg/mL after the 1/200 dilution into medium+cells−compound concentrations decreased in 2× steps across the rows of a microtiter plate. All MICs were done in duplicate. • 6. All wells were inoculated with 50 μl of diluted cell suspension (see above) to a final volume of 100 μl. • 7. After inoculum was added, each well was mixed thoroughly with a manual multichannel pipettor; same tips were used going from low to high concentration of drug in the same microtiter plate. • 8. Plates were incubated at 37° C. for at least 18 hours. • 9.
# Examined the test plates after the correct incubation time and read the MIC endpoint at the concentration where a marked reduction occurred in the appearance of growth on the test plate as compared to that of growth on the positive control plates.
smiles,measurement,setting,value
"CCNC(=O)Nc1nc2cc(-c3cnc(C(C)(C)OP(=O)([O-])[O-])nc3)c(F)c([C@H]3CCCO3)c2[nH]1.[Na+].[Na+] [Form X, disodium (R)-2-(5-(2-(3-ethylureido)-6-fluoro-7-(tetrahydrofuran-2-yl)-1H-benzo[d]imidazol-5-yl)pyrimidin-2-yl)propan-2-yl phosphate]",MIC,[1],0.25 µg/mL
same,MIC,"[2]; ATCC29213, Staphylococcus aureus ATCC 29213 GyrB T173I",> 16 µg/mL
same,MIC,"[2]; ATCC29213, Staphylococcus aureus ATCC 29213 with 50% Mouse Serum",2 µg/mL
same,MIC,[3],2 µg/mL
same,Net % increase in total impurities,[4],0.59%
same,MIC,[5],4 µg/mL
same,MIC,Escherichia coli AG100; Escherichia coli AG100 WT,> 16 µg/mL
same,MIC,"Escherichia coli AG100; Escherichia coli, AG100, Escherichia coli AG100 tolC",2 µg/mL
